Experimental data as given in patent US4705753A, “Biologically active acrylonitrile-based copolymeric membrane” (priority 1984, dated 1987).

Target: glucose isomerase (GI) from Streptomyces albus, purified, covalently immobilized on acrylonitrile copolymer membrane (Streptomyces albus G, UniProt P24299)
Conditions: substrate glucose; membrane-bound GI; 70° C., pH 6.8 maleate buffer, 7 mM MgSO4, 3 mM CoSO4

glucose isomerase (GI) from Streptomyces albus, purified, covalently immobilized on acrylonitrile copolymer membrane, sequence (P24299 whole entry): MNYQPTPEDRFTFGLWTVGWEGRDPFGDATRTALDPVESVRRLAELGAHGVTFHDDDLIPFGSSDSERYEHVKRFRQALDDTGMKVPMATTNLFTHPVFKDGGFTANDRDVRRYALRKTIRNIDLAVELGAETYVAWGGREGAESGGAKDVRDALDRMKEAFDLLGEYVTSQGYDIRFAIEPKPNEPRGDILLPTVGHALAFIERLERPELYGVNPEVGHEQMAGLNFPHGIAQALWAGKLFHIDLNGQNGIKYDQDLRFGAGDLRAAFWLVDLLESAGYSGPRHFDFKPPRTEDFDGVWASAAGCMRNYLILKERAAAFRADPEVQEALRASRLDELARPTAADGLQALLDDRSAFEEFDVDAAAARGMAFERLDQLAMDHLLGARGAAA

OC[C@H]1OC(O)[C@H](O)[C@@H](O)[C@@H]1O (stereo partly shown) [glucose]
Vmax for the immobilized GI: ~15 µmol/min/mg
